For eight molecules, MIC results are on record in DBAASP.

Among the test systems are Micrococcus luteus A270; Candida albicans MDM8; Escherichia coli SBS 363; Escherichia coli K88; Escherichia coli 078; Escherichia coli K99; Escherichia coli 987P; Escherichia coli UB1005; Escherichia coli W3110; Acinetobacter baumannii; Staphylococcus aureus MR; Enterobacter cloacae; Escherichia coli BL21.
Experiment in all cases: ≥ marks a high value that may be exact or a test limit, other limits are often not marked, values filed in µg/mL are converted to µM
Test [1] concerns Staphylococcus aureus ATCC 29213.
The subject of test [2] is Serratia marcescens ATCC 4112.
In test [3] the test system is Enterobacter cloacae beta-12.
The subject of test [4] is Candida tropicalis IOC 4560.
Test [5] has as its system Bacillus megaterium ATCC 10778.
Test [6] deals with Pseudomonas aeruginosa ATCC 27853.
In test [7] the test system is Bacillus subtilis ATCC 6633.
The test system of test [8] is Streptococcus pyogenes DMST 17020.
For test [9], the system named is Staphylococcus epidermidis ATCC 12228.
Test [10] has as its system Candida albicans CGMCC 2.2086.
In test [11] the test system is Candida parapsilosis CGMCC 2.3989.
The test system of test [12] is Lactiplantibacillus plantarum 8014.
For test [13], the system named is Lacticaseibacillus rhamnosus 7469.
Test [14] concerns Staphylococcus aureus ATCC 25923.
In test [15] the test system is Candida tropicalis CGMCC 2.1975.
Test [16] has as its system Escherichia coli ATCC 25922.
Test [17] has as its system Salmonella enterica subsp. enterica serovar Typhimurium ATCC 14028.
Test [18] concerns Salmonella enterica subsp. enterica serovar Typhimurium C77-31.
The subject of test [19] is Pseudomonas aeruginosa PAO1.
In test [20] the test system is Klebsiella pneumoniae ATCC BAA-1705.
For test [21], the system named is Klebsiella pneumoniae ATCC 13883.
In test [22] the test system is Staphylococcus aureus ATCC 12600.
Test [23] concerns Escherichia coli KpC+001812446.
In test [24] the test system is Klebsiella pneumoniae KpC+001825971.
Test [25] relates to Pseudomonas aeruginosa PA14.

Converted amounts (≈) assume the structure as drawn.

A word on the MIC: it is the lowest concentration that inhibits growth of the organism. High values mean a less susceptible organism, low ones a more susceptible organism. Take `CC(C)C[C@H](NC(=O)[C@H](C)NC(=O)CNC(=O)[C@H](CC(C)C)NC(=O)[C@@H](N)Cc1ccccc1)C(=O)N[C@@H](Cc1c[nH]c2ccccc12)C(=O)N[C@@H](CC(N)=O)C(=O)N[C@H](C(=O)N[C@@H](Cc1ccccc1)C(=O)N[C@@H](CCCCN)C(=O)N[C@@H](CO)C(=O)N[C@H](C(=O)N[C@@H](Cc1ccccc1)C(N)=O)C(C)C)C(C)C` [FLGALWNVFKSVF]: the MIC in [1] is 0.8 µM (≈ 1.22 µg/mL); in test [2], 0.4 µM (≈ 0.611 µg/mL); in the test with Micrococcus luteus A270, 0.8 µM (≈ 1.22 µg/mL); in the test with Candida albicans MDM8, 6.3 µM (≈ 9.62 µg/mL); in test [3], at least 50 µM; in test [4], 1.6 µM (≈ 2.44 µg/mL). Further, the MIC in test [5] was 1.6 µM (≈ 2.44 µg/mL); in the test on Escherichia coli SBS 363 it was 3.1 µM (≈ 4.73 µg/mL); in [6], above 50 µM; in test [7], 0.8 µM (≈ 1.22 µg/mL).

With `CSCC[C@H](NC(=O)[C@H](CS)NC(=O)[C@H](CC(C)C)NC(=O)[C@@H](NC(=O)[C@@H](N)Cc1cnc[nH]1)[C@@H](C)O)C(=O)N[C@@H](CC(=O)O)C(=O)NCC(=O)NCC(=O)N[C@@H](C)C(=O)N[C@H](C(=O)N[C@@H](Cc1ccc(O)cc1)C(=O)O)[C@@H](C)O` [HTLCMDGGATY], the MIC in [8] is at least 50 µM.

Take `CSCC[C@H](NC(=O)[C@H](CS)NC(=O)[C@H](CC(C)C)NC(=O)[C@@H](NC(=O)[C@@H](N)Cc1cnc[nH]1)[C@@H](C)O)C(=O)NCC(=O)N[C@@H](CCCCN)C(=O)N[C@@H](C)C(=O)N[C@H](C(=O)N[C@@H](Cc1ccc(O)cc1)C(=O)O)[C@@H](C)O` [HTLCMGKATY]: the MIC in [9] is 250 µM (≈ 281 µg/mL); in [8], at least 250 µM.

Turning to `CC[C@H](C)[C@H](N)C(=O)N[C@@H](Cc1cnc[nH]1)C(=O)N[C@@H](Cc1cnc[nH]1)C(=O)N[C@H](C(=O)N[C@@H](Cc1cnc[nH]1)C(=O)N[C@@H](Cc1cnc[nH]1)C(=O)N[C@@H](Cc1cnc[nH]1)C(=O)N[C@H](C(=O)N[C@@H](Cc1cnc[nH]1)C(=O)N[C@@H](Cc1cnc[nH]1)C(=O)N[C@H](C(=O)N[C@@H](Cc1cnc[nH]1)C(=O)N[C@@H](Cc1cnc[nH]1)C(=O)N[C@@H](Cc1cnc[nH]1)C(=O)N[C@H](C(=O)N[C@@H](Cc1cnc[nH]1)C(=O)N[C@@H](Cc1cnc[nH]1)C(=O)N[C@H](C(=O)N[C@@H](Cc1cnc[nH]1)C(=O)N[C@@H](Cc1cnc[nH]1)C(=O)N[C@@H](Cc1cnc[nH]1)C(N)=O)[C@@H](C)CC)[C@@H](C)CC)[C@@H](C)CC)[C@@H](C)CC)[C@@H](C)CC` [IHHIHHHIHHIHHHIHHIHHH], the MIC in [10] was 1 µM (≈ 2.75 µg/mL); in [11], 1 µM (≈ 2.75 µg/mL); in test [12], at least 64 µM; in test [13], at least 64 µM; in test [14], above 64 µM; in test [1], above 64 µM. The MIC is above 64 µM in test [9] and 0.5 µM (≈ 1.38 µg/mL) in test [15].

For `CC[C@H](C)[C@H](N)C(=O)N[C@@H](Cc1cnc[nH]1)C(=O)N[C@@H](Cc1cnc[nH]1)C(=O)N[C@H](C(=O)N[C@@H](Cc1cnc[nH]1)C(=O)N[C@@H](Cc1cnc[nH]1)C(=O)N[C@@H](Cc1cnc[nH]1)C(N)=O)[C@@H](C)CC` [IHHIHHH], the MIC in test [10] is at least 64 µM; in test [11], at least 64 µM; in test [12], at least 64 µM; in test [16] it was above 64 µM; against Escherichia coli K88 it was at least 64 µM; in test [13] it was at least 64 µM. Also, the MIC in [14] is 64 µM (≈ 59.5 µg/mL); in test [17], above 64 µM; in [1] it was above 64 µM; in test [9], above 64 µM; in [15], at least 64 µM; in the test on Escherichia coli 078 it was at least 64 µM. Moreover, the MIC was at least 64 µM in the test with Escherichia coli K99; at least 64 µM in the test with Escherichia coli 987P; at least 64 µM against Escherichia coli UB1005; at least 64 µM in test [18]; above 64 µM in test [6]; above 64 µM in [19].

`CC[C@H](C)[C@H](N)C(=O)N[C@@H](Cc1c[nH]c2ccccc12)C(=O)N[C@@H](Cc1c[nH]c2ccccc12)C(=O)N[C@@H](C)C(=O)N[C@@H](CCCCN)C(=O)N[C@@H](Cc1c[nH]c2ccccc12)C(=O)NCC(=O)N[C@@H](CC(C)C)C(=O)N[C@@H](CCCCN)C(=O)N[C@@H](CC(C)C)C(=O)N[C@@H](CC(C)C)C(=O)N[C@@H](CCCN=C(N)N)C(=O)N[C@@H](Cc1ccc(O)cc1)C(=O)N[C@@H](CCCN=C(N)N)C(=O)N[C@@H](CCCN=C(N)N)C(=O)N[C@@H](Cc1c[nH]c2ccccc12)C(=O)N[C@@H](Cc1ccc(O)cc1)C(=O)O` [IWWAKWGLKLLRYRRWY]: the MIC in [20] is 4 µM (≈ 9.58 µg/mL); in the test with Escherichia coli W3110, 1 µM (≈ 2.39 µg/mL).

As for `CC[C@H](C)[C@H](NC(=O)[C@H](CCCCN)NC(=O)[C@H](CCCCN)NC(=O)[C@@H](NC(=O)[C@H](CCCCN)NC(=O)[C@H](C)NC(=O)[C@H](C)NC(=O)[C@H](CC(C)C)NC(=O)[C@H](CCCN=C(N)N)NC(=O)[C@H](CCCCN)NC(=O)[C@H](CC(C)C)NC(=O)[C@@H](NC(=O)[C@@H](N)CCCCN)[C@@H](C)CC)[C@@H](C)CC)C(=O)N[C@@H](CC(C)C)C(N)=O` [KILKRLAAKIKKIL], the MIC in test [21] was 8 µM (≈ 13.1 µg/mL); in test [16], 4 µM (≈ 6.54 µg/mL); in test [22], 4 µM (≈ 6.54 µg/mL); in the test on Acinetobacter baumannii, at least 32 µM; in [14], above 32 µM; in the test on Staphylococcus aureus MR, at least 32 µM. The MIC in test [23] was 8 µM (≈ 13.1 µg/mL); with Enterobacter cloacae, at least 32 µM; in test [24] it was at least 32 µM; in [25], 4 µM (≈ 6.54 µg/mL); in the test with Escherichia coli BL21, 2 µM (≈ 3.27 µg/mL); in test [19], 4 µM (≈ 6.54 µg/mL).

Consider `CC(C)C[C@H](NC(=O)[C@H](C)NC(=O)CNC(=O)[C@H](CC(C)C)NC(=O)[C@@H](N)CCCCN)C(=O)N[C@@H](Cc1c[nH]c2ccccc12)C(=O)N[C@@H](CC(N)=O)C(=O)N[C@H](C(=O)N[C@@H](C)C(=O)N[C@@H](CCCCN)C(=O)N[C@@H](CO)C(=O)N[C@H](C(=O)N[C@@H](Cc1ccccc1)C(N)=O)C(C)C)C(C)C` [KLGALWNVAKSVF], for which the MIC in [1] was 50 µM (≈ 71.6 µg/mL); in test [2], 6.3 µM (≈ 9.02 µg/mL); in [9] it was above 50 µM; in the test on Micrococcus luteus A270, 6.3 µM (≈ 9.02 µg/mL); against Candida albicans MDM8, 3.1 µM (≈ 4.44 µg/mL); in test [3] it was at least 50 µM. Besides, the MIC is 6.3 µM (≈ 9.02 µg/mL) in test [4], 6.3 µM (≈ 9.02 µg/mL) in [5] and at least 50 µM against Escherichia coli SBS 363.
